Columns and labels:
Heteranthera limosa = experiment: Test B flooded paddy test; assay type: in vivo; settings: Flood, 250 g ai/ha; 0 to 100 scale where 0 is no effect and 100 is complete control
Procedure, shortened: (§1)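 Visual ratings on a 0 to 100 scale, where 100 means complete control, compared treated plants with controls after 13 to 15 days in a greenhouse. Treatment went into paddy water 3 cm deep over the soil, applied to plants at the 2-leaf stage.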

kochia [1] = experiment: Test A preemergence; assay type: in vivo, Kochia scoparia
Procedure, shortened: (§2)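 Visual 0–100 rating (100 = complete control) taken about 10 d post-treatment relative to untreated checks. Preemergence: directed soil spray on sown loam/sand pots. Postemergence: seedlings 2–10 cm, 1–2 leaf. Non-phytotoxic solvent formulation with surfactant.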

ragweed [2] = experiment: Test A postemergence; assay type: in vivo, Ambrosia elatior; settings: for Ragweed plant response rating: 125 g ai/ha
Procedure, shortened: as §2

barnyardgrass [3] = experiment: Test A postemergence; assay type: in vivo, Echinochloa crus-galli; settings: for Barnyardgrass plant response rating: 125 g ai/ha
Procedure, shortened: as §2

barnyardgrass [4] = experiment: Test A preemergence; assay type: in vivo, Echinochloa crus-galli
Procedure, shortened: as §2

barnyardgrass [5] = experiment: Test B flooded paddy test; assay type: in vivo, Echinochloa crus-galli; settings: Flood, 250 g ai/ha; 0 to 100 scale where 0 is no effect and 100 is complete control
Procedure, shortened: as §1

giant foxtail [6] = experiment: Test A postemergence; assay type: in vivo, Setaria faberii; settings: for Foxtail, Giant plant response rating: 125 g ai/ha
Procedure, shortened: as §2

Italian ryegrass [7] = experiment: Test A postemergence; assay type: in vivo, Lolium multiflorum; settings: for Ryegrass, Italian plant response rating: 125 g ai/ha
Procedure, shortened: as §2

corn = experiment: Test A postemergence; assay type: in vivo, Zea mays; settings: for Corn plant response rating: 125 g ai/ha
Procedure, shortened: as §2

pigweed [8] = experiment: Test A preemergence; assay type: in vivo, Amaranthus retroflexus
Procedure, shortened: as §2

blackgrass = experiment: Test A postemergence; assay type: in vivo, Alopecurus myosuroides; settings: for Blackgrass plant response rating: 125 g ai/ha
Procedure, shortened: as §2

kochia [9] = experiment: Test A postemergence; assay type: in vivo, Kochia scoparia; settings: for Kochia plant response rating: 125 g ai/ha
Procedure, shortened: as §2

rice = experiment: Test B flooded paddy test; assay type: in vivo, Oryza sativa; settings: Flood, 250 g ai/ha; 0 to 100 scale where 0 is no effect and 100 is complete control
Procedure, shortened: as §1

wheat = experiment: Test A postemergence; assay type: in vivo, Triticum aestivum; settings: for Wheat plant response rating: 125 g ai/ha
Procedure, shortened: as §2

pigweed [10] = experiment: Test A postemergence; assay type: in vivo, Amaranthus retroflexus; settings: for Pigweed plant response rating: 125 g ai/ha
Procedure, shortened: as §2

galium = experiment: Test A postemergence; assay type: in vivo, Galium aparine; settings: for Galium plant response rating: 125 g ai/ha
Procedure, shortened: as §2

sedge, umbrella = experiment: Test B flooded paddy test; assay type: in vivo, Cyperus difformis; settings: Flood, 250 g ai/ha; 0 to 100 scale where 0 is no effect and 100 is complete control
Procedure, shortened: as §1

ragweed [11] = experiment: Test A preemergence; assay type: in vivo, Ambrosia elatior
Procedure, shortened: as §2

Italian ryegrass [12] = experiment: Test A preemergence; assay type: in vivo, Lolium multiflorum
Procedure, shortened: as §2

giant foxtail [13] = experiment: Test A preemergence; assay type: in vivo, Setaria faberii
Procedure, shortened: as §2

[14] = 31 g ai/ha, 0 to 100 scale where 0 is no effect and 100 is complete control, visual, approximately 10 days
[15] = 125 g ai/ha, 0 to 100 scale where 0 is no effect and 100 is complete control
[16] = 31 g ai/ha, 0 to 100 scale, 0 no effect, 100 complete control
[17] = 0 to 100 scale where 0 is no effect and 100 is complete control
[18] = 500 g ai/ha, 0 to 100 scale where 0 is no effect and 100 is complete control
[19] = 1000 g ai/ha, 0 to 100 scale, 0 no effect, 100 complete control, approx. 10 days
[20] = 1000 g ai/ha, 0 to 100 scale, 0 no effect, 100 complete control

**Q.** What does the source list for `CC(C)Oc1cnn(-c2c(C#N)cccc2Oc2ncc(Cl)cn2)c1` [Compound 149]?
**A.** Plant response rating, Ducksalad (Heteranthera limosa): 70; Plant response rating, Kochia (kochia [1]; [14]): 70; Plant response rating, Kochia (kochia [1]; [15]): 100; Plant response rating, Ragweed (ragweed [2]; [16]): 50; Ragweed plant response rating (ragweed [2]; [17]): 80; Plant response rating, Barnyardgrass (barnyardgrass [3]; [16]): 20; Barnyardgrass plant response rating (barnyardgrass [3]; [17]): 70; Plant response rating, Barnyardgrass (barnyardgrass [4]; [14]): 40; Plant response rating, Barnyardgrass (barnyardgrass [4]; [15]): 90; Plant response rating, Barnyardgrass (barnyardgrass [5]): 0; Plant response rating, Foxtail, Giant (giant foxtail [6]; [16]): 20; Foxtail, Giant plant response rating (giant foxtail [6]; [17]): 90; Plant response rating, Ryegrass, Italian (Italian ryegrass [7]; [16]): 0; Ryegrass, Italian plant response rating (Italian ryegrass [7]; [17]): 30; Plant response rating, Corn (corn; [16]): 0; Corn plant response rating (corn; [17]): 20; Plant response rating, Pigweed (pigweed [8]; [14]): 100; Plant response rating, Pigweed (pigweed [8]; [15]): 100; Plant response rating, Blackgrass (blackgrass; [16]): 50; Blackgrass plant response rating (blackgrass; [17]): 80; Plant response rating, Kochia (kochia [9]; [16]): 60; Kochia plant response rating (kochia [9]; [17]): 70; Plant response rating, Rice (rice): 0; Plant response rating, Wheat (wheat; [16]): 0; Wheat plant response rating (wheat; [17]): 0; Plant response rating, Pigweed (pigweed [10]; [16]): 60; Pigweed plant response rating (pigweed [10]; [17]): 100; Plant response rating, Galium (galium; [16]): 70; Galium plant response rating (galium; [17]): 100; Plant response rating, Sedge, Umbrella (sedge, umbrella): 65; Plant response rating, Ragweed (ragweed [11]; [14]): 0; Plant response rating, Ragweed (ragweed [11]; [15]): 60; Plant response rating, Ryegrass, Italian (Italian ryegrass [12]; [14]): 0; Plant response rating, Ryegrass, Italian (Italian ryegrass [12]; [15]): 20; Plant response rating, Foxtail, Giant (giant foxtail [13]; [14]): 60; Plant response rating, Foxtail, Giant (giant foxtail [13]; [15]): 100

**Q.** Which results are given for `CC(F)c1cccc(Oc2ncc(Cl)cn2)c1-n1cc(Br)cn1` (centres unmarked) [Compound 146]?
**A.** Plant response rating, Ducksalad (Heteranthera limosa): 40; Plant response rating, Kochia (kochia [1]; [15]): 40; Kochia plant response rating (kochia [1]; [18]): 100; Ragweed plant response rating (ragweed [2]; [17]): 10; Plant response rating, Ragweed (ragweed [2]; [18]): 10; Barnyardgrass plant response rating (barnyardgrass [3]; [17]): 10; Plant response rating, Barnyardgrass (barnyardgrass [3]; [18]): 60; Plant response rating, Barnyardgrass (barnyardgrass [4]; [15]): 20; Barnyardgrass plant response rating (barnyardgrass [4]; [18]): 90; Plant response rating, Barnyardgrass (barnyardgrass [5]): 20; Foxtail, Giant plant response rating (giant foxtail [6]; [17]): 20; Plant response rating, Foxtail, Giant (giant foxtail [6]; [18]): 80; Ryegrass, Italian plant response rating (Italian ryegrass [7]; [17]): 0; Plant response rating, Ryegrass, Italian (Italian ryegrass [7]; [18]): 40; Corn plant response rating (corn; [17]): 10; Plant response rating, Corn (corn; [18]): 30; Plant response rating, Pigweed (pigweed [8]; [15]): 60; Pigweed plant response rating (pigweed [8]; [18]): 100; Blackgrass plant response rating (blackgrass; [17]): 20; Plant response rating, Blackgrass (blackgrass; [18]): 70; Kochia plant response rating (kochia [9]; [17]): 70; Plant response rating, Kochia (kochia [9]; [18]): 100; Plant response rating, Rice (rice): 0; Wheat plant response rating (wheat; [17]): 0; Plant response rating, Wheat (wheat; [18]): 0; Pigweed plant response rating (pigweed [10]; [17]): 100; Plant response rating, Pigweed (pigweed [10]; [18]): 100; Galium plant response rating (galium; [17]): 50; Plant response rating, Galium (galium; [18]): 100; Plant response rating, Sedge, Umbrella (sedge, umbrella): 40; Plant response rating, Ragweed (ragweed [11]; [15]): 0; Ragweed plant response rating (ragweed [11]; [18]): 100; Plant response rating, Ryegrass, Italian (Italian ryegrass [12]; [15]): 0; Ryegrass, Italian plant response rating (Italian ryegrass [12]; [18]): 50; Plant response rating, Foxtail, Giant (giant foxtail [13]; [15]): 70; Foxtail, Giant plant response rating (giant foxtail [13]; [18]): 100

**Q.** How did the “Plant response rating, Ducksalad” value (Heteranthera limosa) turn out when `Cc1noc(-c2cccc(Oc3ncc(Cl)cn3)c2-n2cc(C(F)(F)F)cn2)n1` [Compound 299] was run?
**A.** 20

**Q.** And the “Kochia plant response rating” value (kochia [1]; [19])?
**A.** 100

**Q.** What about the “Plant response rating, Ragweed” value (ragweed [2]; [20]) of the same compound?
**A.** 30

**Q.** And the “Plant response rating, Barnyardgrass” value (barnyardgrass [3]; [20])?
**A.** 80

**Q.** What about the “Barnyardgrass plant response rating” value (barnyardgrass [4]; [19]) of the same compound?
**A.** 90

**Q.** And the “Plant response rating, Barnyardgrass” value (barnyardgrass [5])?
**A.** 20

**Q.** And the “Plant response rating, Foxtail, Giant” value (giant foxtail [6]; [20])?
**A.** 90

**Q.** What about the “Plant response rating, Ryegrass, Italian” value (Italian ryegrass [7]; [20]) of the same compound?
**A.** 70

**Q.** What about the “Plant response rating, Corn” value (corn; [20]) of the same compound?
**A.** 70

**Q.** What about the “Pigweed plant response rating” value (pigweed [8]; [19]) of the same compound?
**A.** 100

**Q.** What about the “Plant response rating, Blackgrass” value (blackgrass; [20]) of the same compound?
**A.** 80

**Q.** What about the “Plant response rating, Kochia” value (kochia [9]; [20]) of the same compound?
**A.** 70

**Q.** What about the “Plant response rating, Rice” value (rice) of the same compound?
**A.** 15

**Q.** And the “Plant response rating, Wheat” value (wheat; [20])?
**A.** 20

**Q.** And the “Plant response rating, Pigweed” value (pigweed [10]; [20])?
**A.** 100

**Q.** And the “Plant response rating, Galium” value (galium; [20])?
**A.** 80

**Q.** What about the “Plant response rating, Sedge, Umbrella” value (sedge, umbrella) of the same compound?
**A.** 70

**Q.** And the “Ragweed plant response rating” value (ragweed [11]; [19])?
**A.** 70

**Q.** And the “Ryegrass, Italian plant response rating” value (Italian ryegrass [12]; [19])?
**A.** 60

**Q.** What about the “Foxtail, Giant plant response rating” value (giant foxtail [13]; [19]) of the same compound?
**A.** 100
